pEC50: −log10 of the molar value.
Key:
[1] = CSF levels after i.p. dosing in c57/Bl6 mice; assay type: in vivo, mouse
[2] = CSF levels after i.p. dosing in CD-1 mice; details: zolmitriptan 3 and 10 mg/kg i.p., male CD-1 mice
[3] = biological target: T1, rat recombinant 5-HT1b (r5-HT1b) receptors (Rattus norvegicus, UniProt P28564); assay: SPA-based 35S-GTPγS binding assay (functional); assay type: biochemical
T1 construct: expressed in transfected cells
Procedure: In this study in vitro binding assays were conducted to measure the affinity of zolmitriptan and its active metabolite NDMZ to rat and human 5-HT1B receptors.
Zolmitriptan was tested in a SPA-based 35S-GTPγS binding assay in cells expressing human 5-HT1b (h5-HT1b) receptors or rat recombinant 5-HT1b (r5-HT1b) receptors at ten concentrations in duplicate.

5-HT1b receptor = 5-HT1b receptor (Homo sapiens, UniProt P28222); assay: 5-HT1b receptor occupancy and efficacy model, human dose estimate
Procedure: Specifically, 5-HT1b receptor occupancy and efficacy models measured potency of zolmitriptan and NMDZ at the 5-HT1b receptor and the ratio of zolmitriptan: NDMZ in human CSF. The 5-HT1b receptor efficacy model was used to predict the level of 5-HT1b activation (i.e., efficacy) by both zolmitriptan and NDMZ based on the concentration of zolmitriptan in the CSF. From this target zolmitriptan dose ranges required to achieve an effective CSF exposures in humans were calculated.
Using classical receptor theory, the receptor occupancy when considering two ligands (i.e., entities) can be predicted using the following relationship:
Total % occupancy=(% occupancy by A)+{[100%−(% occupancy by A)]×(% occupancy by B)} when considering a fixed concentration of both A and B.
Total % Efficacy={[Zolmitriptan]/([Zolmitriptan]+Ki,Z)}+(100−{[Zolmitriptan]/([Zolmitriptan]+Ki,Z)}×{[NDMZ]/([NDMZ]+Ki,N)}

CD-1 mice = assay: Resident-Intruder (RI) assay of aggression; assay type: in vivo, mouse; details: 10 mg/kg
Procedure: Correspondingly, the RI assay has been used preclinically to study the effect of drugs on rodent aggression (Miczek et al., 2001). The RI assay typically relies on the interpretation and scoring of offensive (resident animal) behavior patterns and may also include analysis of defensive (intruder animal) behavior patterns as well. […] Attack time was measured over a 5 min period as a cross over design.

5-HT1b receptor, sequence (P28222 whole entry): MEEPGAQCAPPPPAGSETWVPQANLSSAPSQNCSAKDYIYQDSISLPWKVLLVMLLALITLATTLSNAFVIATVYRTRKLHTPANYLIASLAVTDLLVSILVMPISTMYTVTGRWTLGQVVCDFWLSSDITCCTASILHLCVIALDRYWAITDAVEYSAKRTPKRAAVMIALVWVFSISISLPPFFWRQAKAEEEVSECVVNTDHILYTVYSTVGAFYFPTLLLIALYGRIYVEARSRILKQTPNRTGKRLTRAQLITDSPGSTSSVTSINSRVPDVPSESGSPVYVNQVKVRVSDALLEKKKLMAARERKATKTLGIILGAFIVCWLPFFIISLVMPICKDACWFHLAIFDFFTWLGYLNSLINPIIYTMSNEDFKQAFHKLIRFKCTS
T1 sequence (P28564 whole entry): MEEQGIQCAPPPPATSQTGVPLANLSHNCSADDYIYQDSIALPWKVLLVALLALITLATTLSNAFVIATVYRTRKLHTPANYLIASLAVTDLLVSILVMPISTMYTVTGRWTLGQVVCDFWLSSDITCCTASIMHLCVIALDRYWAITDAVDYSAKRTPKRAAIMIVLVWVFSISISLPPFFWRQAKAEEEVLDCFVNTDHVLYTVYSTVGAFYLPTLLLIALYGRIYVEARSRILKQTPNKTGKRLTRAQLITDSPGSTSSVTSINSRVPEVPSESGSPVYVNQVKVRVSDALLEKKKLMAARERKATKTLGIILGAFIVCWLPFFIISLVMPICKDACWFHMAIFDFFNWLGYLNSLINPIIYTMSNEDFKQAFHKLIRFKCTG

Row | activity in GTPgS at CSF Cmax (EC36) ([3]; CSF Cmax 18.8 nM, CD-1 mice, 3 mg/Kg i.p.) [%] | activity in GTPgS at CSF Cmax (EC65) ([3]; CSF Cmax 62 nM, c57/Bl6 mice, 10 mg/Kg i.p.) [%] | CSF Cmax ([1]; 10 mg/Kg i.p., c57/Bl6 ASD mouse model) [nM] | CSF levels required for a therapeutic effect in humans, lower than in mice (5-HT1b receptor; based on human vs rat 5-HT1b EC50) | concentration for 50% Total Efficacy relative to the zolmitriptan EC50 (5-HT1b receptor; combined effect of the metabolite) [fold] | pEC50 (5-HT1b receptor; read-out: concentration of zolmitriptan in human CSF predicted to induce 50% efficacy (EC50) of 5-HT1b by zolmitriptan and NDMZ, model, zolmitriptan: NDMZ 1.0:0.75) | Structure (SMILES) | metabolite level in CSF after zolmitriptan dosing ([1]; zolmitriptan 10 mg/kg i.p., male c57/Bl6 mice) | metabolite level after zolmitriptan dosing [2] | reduction in attack time compared to risperidone (0.03 mg/kg) and vehicle control (CD-1 mice)
1 | – | – | – | – | – | – | CNCCc1c[nH]c2ccc(C[C@H]3COC(=O)N3)cc12 [NDMZ, N-desmethyl zolmitriptan] | below the lower limit of quantification | below the lower limit of quantification | –
2 | 36 | 65 | 62 | about 8.3 fold | 3.7 | 8.96 | CN(C)CCc1c[nH]c2ccc(C[C@H]3COC(=O)N3)cc12 [Zolmitriptan, (4S)-4-[[3-[2-(dimethylamino)ethyl]-1H-indol-5-yl]methyl]-1,3-oxazolidin-2-one] | – | – | greater reduction in attack time
